Experimental data reported in PubChem BioAssay AID2060333 (Molecular Pharmacology Branch, DTP, NCI, 2025).

System: 845751-090-R-J2-PDC tumor spheroid viability
Assay: Anticancer human tumor 845751-090-R-J2-PDC patient-derived head and neck squamous carcinoma cell line growth inhibition [IpAb]
Settings: spheroids with HUVEC and MSC; for IC50: curve of first compound; for viability, T/C: stronger effect = lower value
How it was run: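 Combinations with ipatasertib or abemaciclib were tested on tumour spheroids holding HUVEC (25%) and MSC (15%) alongside 60% malignant cells. Top concentration was at or near clinical Cmax (10 microM if undefined), descending in half-log steps.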

[1] = second compound 0.1 µM, first compound 0.0316 µM
[2] = second compound 0.1 µM, first compound 0.1 µM
[3] = second compound 0.1 µM, first compound 0.316 µM
[4] = second compound 0.1 µM, first compound 1 µM
[5] = second compound 0.1 µM, first compound 3.16 µM
[6] = second compound 0.1 µM, first compound 10 µM
[7] = second compound 0.316 µM, first compound 0.0316 µM
[8] = second compound 0.316 µM, first compound 0.1 µM
[9] = second compound 0.316 µM, first compound 0.316 µM
[10] = second compound 0.316 µM, first compound 1 µM
[11] = second compound 0.316 µM, first compound 3.16 µM
[12] = second compound 0.316 µM, first compound 10 µM
[13] = second compound 1 µM, first compound 0.0316 µM
[14] = second compound 1 µM, first compound 0.1 µM
[15] = second compound 1 µM, first compound 0.316 µM
[16] = second compound 1 µM, first compound 1 µM
[17] = second compound 1 µM, first compound 3.16 µM
[18] = second compound 1 µM, first compound 10 µM
[19] = second compound 3.16 µM, first compound 0.0316 µM
[20] = second compound 3.16 µM, first compound 0.1 µM
[21] = second compound 3.16 µM, first compound 0.316 µM
[22] = second compound 3.16 µM, first compound 1 µM
[23] = second compound 3.16 µM, first compound 3.16 µM
[24] = second compound 3.16 µM, first compound 10 µM
[25] = second compound 10 µM, first compound 0.0316 µM
[26] = second compound 10 µM, first compound 0.1 µM
[27] = second compound 10 µM, first compound 0.316 µM
[28] = second compound 10 µM, first compound 1 µM
[29] = second compound 10 µM, first compound 3.16 µM
[30] = second compound 10 µM, first compound 10 µM
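Also: spheroids exposed to compounds for 7 days before readout.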
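For viability, T/C in this document: CTG3D luminescence normalised so that 100% = DMSO vehicle control.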

For `Cn1ncc(Cl)c1-c1cc(C(=O)NC(CN)Cc2cccc(F)c2)sc1Cl` (stereo not given) + CC(C)NCC(C(=O)N1CCN(c2ncnc3c2C(C)CC3O)CC1)c1ccc(Cl)cc1, the IC50 (second compound 0.1 µM) was 188 nM, the IC50 (second compound 0.316 µM) was < 31.6 nM and the IC50 (second compound 1 µM) was < 31.6 nM. For the same compound, the IC50 (second compound 3.16 µM) was < 31.6 nM, the IC50 (second compound 10 µM) was < 31.6 nM and the viability, T/C [1] was 84.6%. The viability, T/C [2] was 59.2%, the viability, T/C [3] was 33.2% and the viability, T/C [4] was 37%. For the same compound, the viability, T/C [5] was 12.1%, the viability, T/C [6] was 0.32% and the viability, T/C [7] was 46.6%. For the same compound, the viability, T/C [8] was 35.4%, the viability, T/C [9] was 37.3% and the viability, T/C [10] was 34.4%. The viability, T/C [11] was 13.6%, the viability, T/C [12] was 0.51% and the viability, T/C [13] was 39.3%. It also gave a viability, T/C [14] of 37.9%, a viability, T/C [15] of 37.2% and a viability, T/C [16] of 27.1%. For the same compound, the viability, T/C [17] was 8.86%, the viability, T/C [18] was 0.24% and the viability, T/C [19] was 29%. For the same compound, the viability, T/C [20] was 27%, the viability, T/C [21] was 26.3% and the viability, T/C [22] was 24.2%. The viability, T/C [23] was 8.88%, the viability, T/C [24] was 0.54% and the viability, T/C [25] was 17.5%. For the same compound, the viability, T/C [26] was 16.1%, the viability, T/C [27] was 24.5% and the viability, T/C [28] was 13.5%. The viability, T/C [29] was 7.33% and the viability, T/C [30] was 0.88%.

`Cc1nc(NC(=O)N2CCCC2C(N)=O)sc1-c1ccnc(C(C)(C)C(F)(F)F)c1` (stereo not given) + CC(C)NCC(C(=O)N1CCN(c2ncnc3c2C(C)CC3O)CC1)c1ccc(Cl)cc1 was tested, and the IC50 (second compound 0.1 µM) was 108 nM, the IC50 (second compound 0.316 µM) was < 31.6 nM and the IC50 (second compound 1 µM) was < 31.6 nM. For the same compound, the IC50 (second compound 3.16 µM) was < 31.6 nM, the IC50 (second compound 10 µM) was < 31.6 nM and the viability, T/C [1] was 49.2%. The viability, T/C [2] was 54%, the viability, T/C [3] was 27.6% and the viability, T/C [4] was 19.2%. It also gave a viability, T/C [5] of 15.5%, a viability, T/C [6] of 8.29% and a viability, T/C [7] of 24.5%. For the same compound, the viability, T/C [8] was 30.9%, the viability, T/C [9] was 20.9% and the viability, T/C [10] was 15.6%. The viability, T/C [11] was 13.1%, the viability, T/C [12] was 7.03% and the viability, T/C [13] was 17.4%. It also gave a viability, T/C [14] of 21.7%, a viability, T/C [15] of 18% and a viability, T/C [16] of 13.8%. The viability, T/C [17] was 10.6%, the viability, T/C [18] was 7.97% and the viability, T/C [19] was 16%. For the same compound, the viability, T/C [20] was 15.8%, the viability, T/C [21] was 14.1% and the viability, T/C [22] was 12.7%. It also gave a viability, T/C [23] of 9.92%, a viability, T/C [24] of 7.77% and a viability, T/C [25] of 13.9%. It also gave a viability, T/C [26] of 13.1%, a viability, T/C [27] of 17.2% and a viability, T/C [28] of 12%. For the same compound, the viability, T/C [29] was 9.58% and the viability, T/C [30] was 5.74%.

For `CC(=O)c1c(C)c2cnc(Nc3ccc(N4CCNCC4)cn3)nc2n(C2CCCC2)c1=O` + CC(C)NCC(C(=O)N1CCN(c2ncnc3c2C(C)CC3O)CC1)c1ccc(Cl)cc1, the IC50 (second compound 0.1 µM) was > 300 nM, the IC50 (second compound 0.316 µM) was < 0.949 nM and the IC50 (second compound 1 µM) was < 0.949 nM. For the same compound, the IC50 (second compound 3.16 µM) was < 0.949 nM, the IC50 (second compound 10 µM) was < 0.949 nM and the viability, T/C (second compound 0.1 µM, first compound 0.000949 µM) was 62.6%. The viability, T/C (second compound 0.1 µM, first compound 0.003 µM) was 64.7%, the viability, T/C (second compound 0.1 µM, first compound 0.00949 µM) was 51.6% and the viability, T/C (second compound 0.1 µM, first compound 0.03 µM) was 53.5%. For the same compound, the viability, T/C (second compound 0.1 µM, first compound 0.0949 µM) was 71.8%, the viability, T/C (second compound 0.1 µM, first compound 0.3 µM) was 68.5% and the viability, T/C (second compound 0.316 µM, first compound 0.000949 µM) was 39.1%. The viability, T/C (second compound 0.316 µM, first compound 0.003 µM) was 33.9%, the viability, T/C (second compound 0.316 µM, first compound 0.00949 µM) was 32.4% and the viability, T/C (second compound 0.316 µM, first compound 0.03 µM) was 28.6%. The viability, T/C (second compound 0.316 µM, first compound 0.0949 µM) was 28.4%, the viability, T/C (second compound 0.316 µM, first compound 0.3 µM) was 34.1% and the viability, T/C (second compound 1 µM, first compound 0.000949 µM) was 26.6%. The viability, T/C (second compound 1 µM, first compound 0.003 µM) was 29.3%, the viability, T/C (second compound 1 µM, first compound 0.00949 µM) was 24.1% and the viability, T/C (second compound 1 µM, first compound 0.03 µM) was 34.8%. The viability, T/C (second compound 1 µM, first compound 0.0949 µM) was 37.3%, the viability, T/C (second compound 1 µM, first compound 0.3 µM) was 22.9% and the viability, T/C (second compound 3.16 µM, first compound 0.000949 µM) was 29.4%. It also gave a viability, T/C (second compound 3.16 µM, first compound 0.003 µM) of 26.1%, a viability, T/C (second compound 3.16 µM, first compound 0.00949 µM) of 26.2% and a viability, T/C (second compound 3.16 µM, first compound 0.03 µM) of 26.6%. It also gave a viability, T/C (second compound 3.16 µM, first compound 0.0949 µM) of 18%, a viability, T/C (second compound 3.16 µM, first compound 0.3 µM) of 21.7% and a viability, T/C (second compound 10 µM, first compound 0.000949 µM) of 16.4%. It also gave a viability, T/C (second compound 10 µM, first compound 0.003 µM) of 15.8%, a viability, T/C (second compound 10 µM, first compound 0.00949 µM) of 13.7% and a viability, T/C (second compound 10 µM, first compound 0.03 µM) of 13.8%. For the same compound, the viability, T/C (second compound 10 µM, first compound 0.0949 µM) was 11.3% and the viability, T/C (second compound 10 µM, first compound 0.3 µM) was 11.5%.
